Results published in patent publication US20100204277A1, “Compositions and Methods for Controlling Infestation” (HATCHTECH PTY LTD., priority 2007, published 2010).
Where two headings read alike, the source gives them in different places. Non-standard residues stand in square brackets, D forms with d. Residues, ends and D or L forms follow the SMILES beside them. *: point of attachment. Sta = CC(C)C[C@H](N)[C@@H](O)CC(=O)O; Isovaleryl = CC(C)CC(=O)*

Legend:
[1] = tested on: Lice (L) / Plutella (P) eggs; assay type: in vivo
Description: Log LD50 is obtained from the observed percentage ovicidal activity by conversion using a modified logit transformation. The observed percentage ovicidal activity values were transformed using the equation:
The additional 5% was used to allow a number to be calculated when 0% and 100% activity was observed. The BA is a crude correction to the log of the concentration at which the compounds were tested. Correlation between BA values and LD50 allows the calculation of Log LD50. […] A number of metal chelating agents with potential for inhibiting the remodelling events associated with thin membrane egg hatching in lice were analysed by comparing their percentage ovicidal activity in lice at different concentrations, their logit calculated pLD50, Pref pLD50, Activity class, clogP and molar refractivity were determined.

[2] = tested on: Plutella xylostella eggs (Waite strain); test: Plutella xylostella egg hatch (egg dip)
Description: Several hundred Plutella xylostella eggs (Waite strain) were collected, that had been laid over a 24 hour period.
The egg masses were then placed in a humid box at 25° C. until egg hatch. Control eggs were exposed to absolute methanol as described above. At day 6 post laying the eggs were assessed from the different treatments and the percentage of egg hatch determined relative to the control as shown in Table 9.
Batches of Plutella eggs that were laid on either fine cloth or parafilm were dipped in a specific inhibitor solution for between 2-10 seconds, the excess solution was drained by blotting with dry tissue paper. The egg masses were then placed in a humid box at 25 degrees until egg hatch. Control eggs were exposed to absolute methanol as described above or not treated. At day 6 post laying the eggs were assessed from the different treatments and the percentage of egg hatch determined relative to the controls as shown in Tables 10 and 11.
The egg masses were then placed in a humid box at 25 degrees until egg hatch. Control eggs were exposed to absolute ethanol as described above. On day 6 post laying the eggs were assessed from the different treatments and the percentage of egg hatch determined relative to the control.

Plutella xylostella eggs = test: Glass house ovicidal test, Plutella eggs on cabbage plants; assay type: in vivo; settings: 10 eggs per plant
Description: A number of treatments and replicates were set up in the glass house using young cabbage plants that were at the 4-5 leaf stage. Plutella xylostella eggs were laid by gravid females on the leaves such that each plant contained 10 eggs. The plants were sprayed with a commercial ovicide or using the compounds 5,5′-dimethyl-2,2′-dipyridyl and 5,5′ diethyl-2,2′-dipyridyl in a formulation at the rate of 200 L/Ha using a track sprayer. Controls of water only or Placebo only were also included. The ovicidal efficacy was monitored over a number of days an the number of eggs hatching and caterpillar larvae emerging recorded (Table 22).

[3] = tested on: proteases in louse egg shell washings (ESW); test: Gelatine substrate SDS-PAGE of louse egg shell washings incubated with protease inhibitors; assay type: biochemical, Pediculus humanus humanus; settings: gelatine SDS-PAGE strips; EDTA 10 mM, 1,10-phenanthroline 10 mM, PMSF 5 mM, E-64 10 μM, Pepstatin 5 μM; 3 hrs at 37° C.
Description: Within 12 hours of hatching 50 body lice eggs (Pediculus humanus humanus) were removed from the hair and placed in a 1 mL eppendorf tube. 20 μL of distilled water was added to the unhatched eggs and the preparation incubated for 30 minutes at 32° C. The 20 μL was recovered, freeze dried and stored at −70° C. This sample was referred to as sample 1. A number of other samples were also collected as described. Sample 2 was collected by removing the unhatched louse eggs from four hairs that were approximately 3 cm long, cutting the hair into 0.5 cm lengths, and placing them into a microfuge tube containing 20 μl of distilled water and incubating at 32° C. for 30 minutes. Sample 3 was collected as for sample 2, but the hair was placed in a tube containing 10 mL of 1% sodium hypochlorite for 1 minute followed by five 1 minute washes in 25 mL of distilled water to remove the sodium hypochlorite before being incubated in a microfuge tube containing 20 μl of distilled water and incubated as for Sample 2. Sample 4 was collected from unhatched eggs which were removed from the hair and washed with 1% sodium hypochlorite and incubated in 20 μl of distilled water in the same manner as the hair in Sample 3. Finally, Sample 5 was collected from eggs that were within 24 hrs of hatching which were washed with 1% sodium hypochlorite, then returned to the incubator at 32° C. until they hatched, the empty egg shells collected 0-2 hrs after egg-hatching, placed in a 1 mL microfuge tube containing 20 μl of distilled water and incubated as for Samples 1-4. For all samples 1-5 the 20 μl of fluid was recovered, freeze-dried and stored at −70° C. The washings recovered from these freshly hatched egg shells are referred to as egg-shell-washings (ESWs). In order to look for the presence of proteases present in these different samples, the freeze-dried samples were resuspended in 15 μL of non-reducing SDS sample buffer, centrifuged at 10,000 g for 2 minutes and the entire 15 μL loaded on to 10% gelatine substrate SDS-PAGE gels. Gels were run at 4° C. for 10 minutes at 10 mA followed by a further 25 minutes at 15 mA per gel. They were then incubated for 2×20 minutes in a 2.5% Triton-X 100 solution followed by a three hour incubation in 0.1M Tris/HCl containing 1 mM CaCl2 pH 8.0. Activity was detected as clear areas on the gel the result of protease activity degrading the gelatine within the gel.
Protease activity in the ESWs from louse eggs was also examined using two-dimensional gel electrophoresis. It was necessary to collect large numbers of freshly hatched egg shells. Following egglaying onto pieces of cloth, adult female lice were removed and the cloth with the eggs washed with 1% sodium hypochlorite as for collection of ESWs. The eggs were then returned to the incubator and permitted to hatch. Typically 100 to 500 hatched egg shells were collected (0-2 hours post hatching), placed in a microfuge tube containing 200 μl of distilled water, incubated and sample treated as described above. For analysis, ESWs were resuspended in rehydration buffer (8 M Urea, 2% 3-[(3-cholamidopropyl) dimethylammonio]-1-propanesulfonate 2% Immobilised pH gradient buffer 3-10 (Amersham Phamacia Biotech, Uppsala, Sweden)) and used to rehydrate 7 cm Immobiline Dry strips pH 3-10 (Amersham Bioscience) overnight. Strips were transferred to the Multiphor II (Pharmacia, Sweden) apparatus, electrophoresed in the first dimension at 200 V for 1 min, increasing to 3,500 V over the next 90 min followed by 65 min at 3,500 V, equilibrated (6 M urea, 30% glycerol, 50 mM Tris pH 8.8 and 2% SDS) and then run on a 10% SDS-PAGE gel containing 0.1% gelatin for the second dimension. The gel was then run and developed as previously described.
10% SDS-PAGE gelatine substrate gels were loaded with freeze dried egg shell washings from 100 lice eggs that had been resuspended in 50 μL of non-reducing sample buffer with samples run at 10 μL per lane. […]

[4] = 10 mM (200 L/Ha), with wetting agent 0.3 ml/L
[5] = 20 mM (200 L/Ha), with wetting agent 0.3 ml/L

N[C@@H]1CCCC[C@H]1O (relative stereo) [Trans-2-aminocyclohexanol]
Activity class 0 = inactive 1 = low 2 = med 3 = high ([1]; 10 mM, Lice/Plutella: ND P): 0 (A pLD50 value less than 2 is considered inactive (Class 0))

Cc1cc(C)cc(C(=O)CC(=O)c2cc(C)cc(C)c2)c1 [1,3-Bis-(3,5-dimethyl-phenyl)-propane-1,3-dione]
Activity class 0 = inactive 1 = low 2 = med 3 = high ([1]; 10 mM, Lice/Plutella: ND P): 0 (A pLD50 value less than 2 is considered inactive (Class 0))

COc1ccc(C(=O)CC(=O)c2ccc(OC)cc2)cc1 [1,3-Bis-(4-methoxy-phenyl)-propane-1,3-dione]
Activity class 0 = inactive 1 = low 2 = med 3 = high ([1]; 10 mM, Lice/Plutella: ND P): 0 (A pLD50 value less than 2 is considered inactive (Class 0))

CC(C)(C)c1ccc(C(=O)CC(=O)c2ccc(C(C)(C)C)cc2)cc1 [1,3-Bis-(4-tert-butyl-phenyl)-propane-1,3-dione]
Activity class 0 = inactive 1 = low 2 = med 3 = high ([1]; 10 mM, Lice/Plutella: ND P): 0 (A pLD50 value less than 2 is considered inactive (Class 0))

O=C(CC(=O)c1cccnc1)c1cccnc1 [1,3-dipyridin-3-yl-propane-1,3-dione]
Activity class 0 = inactive 1 = low 2 = med 3 = high ([1]; 10 mM, Lice/Plutella: ND P): 0 (A pLD50 value less than 2 is considered inactive (Class 0))

COc1ccc(C(=O)CC(=O)c2ccc(C(C)(C)C)cc2)cc1 [1-(4-tert-butylphenyl)-3-(4-methoxyphenyl)-propane-1,3-dione]
Activity class 0 = inactive 1 = low 2 = med 3 = high ([1]; 10 mM, Lice/Plutella: L P): 0 (A pLD50 value less than 2 is considered inactive (Class 0))

c1ccc2nc(-c3ccc4ccccc4n3)ccc2c1 [2,2′-biquinoline]
Activity class 0 = inactive 1 = low 2 = med 3 = high ([1]; 10 mM, Lice/Plutella: L P): 0 (A pLD50 value less than 2 is considered inactive (Class 0))

c1ccc(-c2ccc3ccccc3n2)nc1 [2-(2-pyridinyl)quinoline]
Activity class 0 = inactive 1 = low 2 = med 3 = high ([1]; 10 mM, Lice/Plutella: P): 1 (a pLD50 value between 2 and 3 is considered weakly active (Class 1))
% Inhibition of egg hatch relative to control ([2]; 10 mM, Example 18, eggs on fine cloth dipped approximately 2 seconds, day 6 post laying): able to inhibit

CC(=O)C1CCCCC1=O (stereo not shown) [2-Acetylcyclohexanone]
Activity class 0 = inactive 1 = low 2 = med 3 = high ([1]; 10 mM, Lice/Plutella: ND P): 0 (A pLD50 value less than 2 is considered inactive (Class 0))

c1ccc(Cc2ccccn2)cc1 [2-benzyl-pyridine]
Activity class 0 = inactive 1 = low 2 = med 3 = high ([1]; 10 mM, Lice/Plutella: L P): 0 (A pLD50 value less than 2 is considered inactive (Class 0))

O=C(CC(=O)C(F)(F)F)c1ccccc1 [4,4,4-Trifluoro-1-phenyl-butane-1,3-dione]
Activity class 0 = inactive 1 = low 2 = med 3 = high ([1]; 10 mM, Lice/Plutella: L P): 0 (A pLD50 value less than 2 is considered inactive (Class 0))

Cc1ccnc(-c2cc(C)ccn2)c1 [4,4′-dimethyl-2,2′-dipyridyl]
egg hatching of Plutella eggs (Tables 10 and 11) ([2]; 10 and 1 mM, cloth or parafilm): significantly inhibit

c1cnc2ccc3ncccc3c2c1 [4,7-phenanthroline]
Activity class 0 = inactive 1 = low 2 = med 3 = high ([1]; 10 mM, Lice/Plutella: L P): 0 (A pLD50 value less than 2 is considered inactive (Class 0))

c1ccc(-c2cc(N3CCOCC3)c3ccccc3n2)nc1 [4-Morpholin-4-yl-2-pyridin-2-yl-quinoline]
Activity class 0 = inactive 1 = low 2 = med 3 = high ([1]; 10 mM, Lice/Plutella: L P): 0 (A pLD50 value less than 2 is considered inactive (Class 0))

CCc1ccc(-c2ccc(CC)cn2)nc1 [5,5′diethyl-2,2′-dipyridyl]
# LARVAE EMERGED 0-24 h (Plutella xylostella eggs; 10 mM (200 L/Ha), No Wetting Agent): 0
# LARVAE EMERGED 0-24 h (Plutella xylostella eggs; [4]): 0

Cc1ccc(-c2ccc(C)cn2)nc1 [5,5′dimethyl-2,2′-dipyridyl]
# LARVAE EMERGED 0-24 h (Plutella xylostella eggs; [4]): 0
# LARVAE EMERGED 24-48 h (Plutella xylostella eggs; [4]): 0
# LARVAE EMERGED 0-24 h (Plutella xylostella eggs; [5]): 0
# LARVAE EMERGED 24-48 h (Plutella xylostella eggs; [5]): 0
# LARVAE EMERGED 48-72 h (Plutella xylostella eggs; 20 mM (200 L/Ha), with wetting agent 0.3 ml/L, 48-72 h): 0

CC(=O)NO [Acetohydroxamic acid]
Activity class 0 = inactive 1 = low 2 = med 3 = high ([1]; 10 mM, Lice/Plutella: ND P): 0 (A pLD50 value less than 2 is considered inactive (Class 0))

CC(=O)CC(=O)c1ccccc1 [Benzoylacetone]
Activity class 0 = inactive 1 = low 2 = med 3 = high ([1]; 1 mM, Lice/Plutella: ND P): 0 (A pLD50 value less than 2 is considered inactive (Class 0))
Activity class 0 = inactive 1 = low 2 = med 3 = high ([1]; 10 mM, Lice/Plutella: ND P): 1 (a pLD50 value between 2 and 3 is considered weakly active (Class 1))

O=C(CC(=O)c1ccccc1)c1ccccc1 [Dibenzoyl methane]
Activity class 0 = inactive 1 = low 2 = med 3 = high ([1]; 10 mM, Lice/Plutella: P): 1 (a pLD50 value between 2 and 3 is considered weakly active (Class 1))

CC(C)C[C@H](NC(=O)[C@H]1O[C@@H]1C(=O)O)C(=O)NCCCCN=C(N)N [E-64]
protease activity of egg shell washings compared to untreated controls [3]: no apparent reduction in protease activity

O=C(O)CN(CCN(CC(=O)O)CC(=O)O)CC(=O)O [EDTA, ethylenediamine tetraacetic acid]
protease activity of egg shell washings compared to untreated controls [3]: reduction in protease activity

COC(=O)CN [Glycine methyl ester]
Activity class 0 = inactive 1 = low 2 = med 3 = high ([1]; 10 mM, Lice/Plutella: ND P): 0 (A pLD50 value less than 2 is considered inactive (Class 0))

O=S(=O)(F)Cc1ccccc1 [PMSF]
protease activity of egg shell washings compared to untreated controls [3]: no apparent reduction in protease activity

CC(C)CC(=O)N[C@H](C(=O)N[C@H](C(=O)N[C@@H](CC(C)C)[C@@H](O)CC(=O)N[C@@H](C)C(=O)N[C@@H](CC(C)C)[C@@H](O)CC(=O)O)C(C)C)C(C)C [pepstatin] (Isovaleryl-VV[Sta]A[Sta]-OH)
protease activity of egg shell washings compared to untreated controls [3]: no apparent reduction in protease activity
